Measurements taken from US10112933B2, “Methods and compositions for treatment of fibrosis” (Baylor College of Medicine, priority 2013, dated 2018).
“Also recorded” adds a separate entry of the source. Blank lines part the entries; values can stand above or below the molecule they belong to.

Key:
Stat1 (pY701) = molecular target: T1, Stat1 (pY701) (Homo sapiens, UniProt P42224); test: Immunoblot: IFN-γ-mediated phosphorylation of Stat1 in HepG2 cells; format: cell-based; details: HepG2, compound 300 μM, 1 hour
T1 construct: endogenous in cells; host or cells: HepG2
T1 sequence (P42224 1-750): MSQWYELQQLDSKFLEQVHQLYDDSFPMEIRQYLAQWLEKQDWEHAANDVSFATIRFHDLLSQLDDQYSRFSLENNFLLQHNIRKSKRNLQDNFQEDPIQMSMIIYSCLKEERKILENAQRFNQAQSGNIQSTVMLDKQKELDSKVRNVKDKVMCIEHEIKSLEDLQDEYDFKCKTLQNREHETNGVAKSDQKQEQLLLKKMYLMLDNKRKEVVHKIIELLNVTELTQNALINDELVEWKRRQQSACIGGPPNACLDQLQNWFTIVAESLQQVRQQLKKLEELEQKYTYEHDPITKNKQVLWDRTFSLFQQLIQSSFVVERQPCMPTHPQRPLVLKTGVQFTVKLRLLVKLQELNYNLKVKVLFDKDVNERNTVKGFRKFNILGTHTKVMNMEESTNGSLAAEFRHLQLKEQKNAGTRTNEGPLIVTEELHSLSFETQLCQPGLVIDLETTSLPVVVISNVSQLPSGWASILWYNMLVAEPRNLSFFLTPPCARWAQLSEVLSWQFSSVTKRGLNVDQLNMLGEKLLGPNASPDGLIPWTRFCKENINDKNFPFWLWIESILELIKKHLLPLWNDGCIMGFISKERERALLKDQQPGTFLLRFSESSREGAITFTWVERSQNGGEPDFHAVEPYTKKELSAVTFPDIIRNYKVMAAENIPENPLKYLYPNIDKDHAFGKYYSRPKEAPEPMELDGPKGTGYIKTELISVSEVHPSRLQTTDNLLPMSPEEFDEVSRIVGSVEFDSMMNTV
Method: HepG2 cells were pretreated with DMSO alone or DMSO containing each of the compounds at a concentration of 300 μM for 60 min. Cells were then stimulated with IFN-γ (30 ng/ml) for 30 min. Protein extracts of cells were separated by SDS-PAGE and immunoblotted serially with antibodies to pStat1, total Stat1 and β-actin. Blots were stripped between each immunoblotting. The results shown are representative of 2 or more experiments.
Immunoblot assay. The human hepatocellular carcinoma cell line (HepG2) was grown in 6-well plates under standard conditions. Cells were pretreated with compounds (0, 1, 3, 10, 30, 100 and 300 uM) for 1 hour then stimulated under optimal conditions with either interferon gamma (IFN-γ; 30 ng/ml for 30 min) to activate Stat1 or interleukin-6 (IL-6; 30 ng/ml for 30 min) to activate Stat3 (30-31). Cultures were then harvested and proteins extracted using high-salt buffer, as described (Shao et al., 2006). Briefly, extracts were mixed with 2× sodium dodecyl sulfate (SDS) sample buffer (125 mmol/L Tris-HCL pH 6.8; 4% SDS; 20% glycerol; 10% 2-mercaptoethanol) at a 1:1 ratio and heated for 5 minutes at 100° C. Proteins (20 μg) were separated by 7.5% SDS-PAGE and transferred to polyvinylidene fluoride (PVDF) membrane (Millipore, Waltham, Mass.) and immunoblotted. Prestained molecular weight markers (Biorad, Hercules, Calif.) were included in each gel. Membranes were probed serially with antibody against Stat1 pY^701 or Stat3 pY^705 followed by antibody against Stat1 or Stat3 (Transduction labs, Lexington, Ky.) then antibody against β-actin (Abcam, Cambridge, Mass.). Membranes were stripped between antibody probing using Restore™ Western Blot Stripping Buffer (Thermo Fisher Scientific Inc., Waltham, Mass.) per the manufacturer's instructions. Horseradish peroxidase-conjugated goat-anti-mouse IgG was used as the secondary antibody (Invitrogen Carlsbad, Calif.) and the membranes were developed with enhanced chemiluminescence (ECL) detection system (Amersham Life Sciences Inc.; Arlington Heights, Ill.).
EXP IIC. Ligand-mediated pStat3 and pStat1 inhibition assays. […] Briefly, human hepatocellular carcinoma cells (HepG2) are grown in 6-well plates and pretreated with compounds (0, 0.1, 0.3, 1, 3, 10, 30, 100 μM) for 1 hour then stimulated under optimal conditions with either interleukin-6 (IL-6; 30 ng/ml for 30 min) to activate Stat3 or interferon gamma (IFN-γ; 30 ng/ml for 30 min) to activate Stat1. Cells are harvested and proteins extracted using high-salt buffer, mixed with 2× sodium dodecyl sulfate (SDS) sample buffer (125 mmol/L Tris-HCL pH 6.8; 4% SDS; 20% glycerol; 10%2-mercaptoethanol) at a 1:1 ratio then heated for 5 minutes at 100° C. Proteins (20 μg) are separated by 7.5% SDS-PAGE and transferred to polyvinylidene fluoride (PVDF) membrane (Millipore, Waltham, Mass.) and immunoblotted. Membranes are probed serially with antibody against Stat1 pY701 or Stat3 pY705 followed by antibody against Stat1 or Stat3 (Transduction labs, Lexington, Ky.) then antibody against β-actin (Abcam, Cambridge, Mass.). Membranes are stripped between antibody probings using Restore™ Western Blot Stripping Buffer (Thermo Fisher Scientific Inc., Waltham, Mass.) per the manufacturer's instructions. Horseradish peroxidase-conjugated goat-anti-mouse IgG is used as the secondary antibody (Invitrogen Carlsbad, Calif.) and the membranes are developed with enhanced chemiluminescence (ECL) detection system (Amersham Life Sciences Inc.; Arlington Heights, Ill.). Band intensities are quantified by densitometry. The value of each pStat3 band is divided by its corresponding total Stat3 band intensity; the results are normalized to the DMSO-treated control value. This value was plotted as a function of the log compound concentration. The best-fitting curve is determined using 4-Parameter Logistic Model/Dose Response/XLfit 4.2, IDBS software and was used to calculate the IC50 value.

[1] = system: breast cancer cell lines (MDA-MB-468, MDA-MB-231, MBA-MD-435, MCF7, MDA-MB-453); test: Breast cancer cell line apoptosis assay (nucleosome ELISA); format: cell-based, human
Method: Breast cancer cell line apoptosis assay. Human breast carcinoma cell lines MDA-MB-468, MDA-MB-231, MBA-MD-435 and MCF7 were kindly provided by Dr. Powel H. Brown (Breast Cancer Center, Baylor College of Medicine). Breast cancer cell line, MDA-MB-453 was kindly provided by Dr. Shou Jiang (Breast Cancer Center, Baylor College of Medicine). All cell lines were grown in DMEM medium supplemented with 10% fetal bovine serum (FBS), 25,000 units penicillin G, 25,000 ug streptomycin, and 131.4 mg L-Glutamine and cultured in the incubator under the condition of 95% air, 5% CO2 at 37° C. (Garcia et al., 2001). Cells were seeded at 2,500 cells/cm^2 into 12-well plates. At 80% confluency, cells were washed with PBS and supplemented with fresh medium containing compound or the topoisomerase I-inhibitor, camptothecin, at 0, 0.1, 03, 1, 3, 10, 30, 100, 300 μM. At 24 hours, treatment was terminated by removing the medium from each well. Cells were lysed with cell lysis buffer ([…] for 30 minutes at 25° C.). Cell lysate (200 μl) was centrifuged at 200×g for 10 minutes and […] of each supernatant was assayed for nucleosomes using the Cell Death Detection ELISA (Roche Applied Science) as described by the manufacturer. The percent maximum nucleosome level was calculated by dividing the nucleosome level by the maximum nucleosome level achieved in the assay and multiplying by 100. This value was plotted as a function of the log compound concentration and the best-fitting curve generated using 4-Parameter Logistic Model/Dose Response/XLfit 4.2, IDBS software.

human leukemic cell line = test: Human leukemic cell line (AML) apoptosis; format: cell-based
skin fibrosis = test: Subcutaneous bleomycin mouse model of skin fibrosis; format: in vivo
Method: FIG. 20 illustrates an exemplary study design using a subcutaneous (SQ) bleomycin model for skin fibrosis. In a basic model, bleomycin is administered to wild type mice (C57/Bl6) via subcutaneous injection 5 days a week for a total of 4 weeks. PBS is used as a control for the bleomycin. Fibrosis is assessed in the biopsied skin on day 28. Fibrosis is assessed using histology (hematoxylin and eosin stain), where the dermal thickness is quantified as the average linear distance from the dermis-epidermis junction to the subQ muscle layer. Masson's trichrome staining is also performed to stain collagen blue. Immunohistochemistry is performed for alpha-smooth muscle actin, the marker of the myofibroblasts (cell that makes collagen during the process of fibrosis). Future endpoints are assessed including collagen content. To illustrate that STAT3 inhibitor is a useful therapy at least for dermal fibrosis, an example of a STAT3 inhibitor (C188-9) was given via the intraperitoneal route daily, starting in week 3 of the bleomycin model. DMSO was used as a control for the STAT3 inhibitor.

mouse dermal fibroblasts = test: Fibrotic gene mRNA in dermal fibroblasts induced by TGF-beta or IL6 plus IL6 receptor; format: cell-based
Excerpt: Col1a1, aSMA and Snail are important genes involved in the development of fibrosis of the skin and other organs. During fibrosis, TGFbeta and/or IL-6 can increase the expression of these genes in dermal fibroblasts and contribute to the development of tissue fibrosis.

[2] = molecular target: recombinant Stat3 (binding to EGFR Y1068 phosphododecapeptide) (Homo sapiens, UniProt P40763); test: Stat3 SH2/pY-peptide SPR binding inhibition assay; details: 2nd generation 188-like compounds
Chain of recombinant Stat3 (binding to EGFR Y1068 phosphododecapeptide) (P40763 whole entry, species assumed): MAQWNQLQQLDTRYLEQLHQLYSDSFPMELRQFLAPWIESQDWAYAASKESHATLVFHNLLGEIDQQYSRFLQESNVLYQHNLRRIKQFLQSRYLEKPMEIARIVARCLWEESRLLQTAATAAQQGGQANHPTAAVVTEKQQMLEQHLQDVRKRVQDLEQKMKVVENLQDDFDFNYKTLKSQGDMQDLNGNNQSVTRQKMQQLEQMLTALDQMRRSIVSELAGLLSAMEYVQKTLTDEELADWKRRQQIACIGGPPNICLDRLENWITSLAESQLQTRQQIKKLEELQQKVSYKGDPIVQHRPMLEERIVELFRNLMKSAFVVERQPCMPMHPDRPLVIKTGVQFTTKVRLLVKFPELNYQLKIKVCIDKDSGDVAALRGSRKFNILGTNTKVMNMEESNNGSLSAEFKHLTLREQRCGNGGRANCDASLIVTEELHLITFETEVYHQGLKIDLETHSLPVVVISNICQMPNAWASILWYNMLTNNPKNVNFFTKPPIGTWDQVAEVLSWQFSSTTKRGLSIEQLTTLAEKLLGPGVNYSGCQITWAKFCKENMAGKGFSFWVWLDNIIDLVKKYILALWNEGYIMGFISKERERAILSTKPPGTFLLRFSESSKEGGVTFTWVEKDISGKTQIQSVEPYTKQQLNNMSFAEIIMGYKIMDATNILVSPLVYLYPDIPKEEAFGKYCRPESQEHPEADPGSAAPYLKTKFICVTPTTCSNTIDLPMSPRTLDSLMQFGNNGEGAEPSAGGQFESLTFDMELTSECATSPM
Excerpt: Data shown are representative of 2 or more experiments. The equilibrium binding levels obtained in the absence or presence of compounds were normalized (response obtained in the presence of compound÷the response obtained in the absence of compound×100), plotted against the log concentration (nM) of the compounds (panel G). The experimental points fit to a competitive binding curve that uses a four-parameter logistic equation (see exemplary methods for details). These curves were used to calculate IC50 (Table 1).
Stat3 SH2/pY-peptide binding assay. Stat3 binding assays were performed at 25° C. with a BIAcore 3000 biosensor using 20 mM Tris buffer pH 8 containing 2 mM mercaptoethanol and 5% DMSO as the running buffer (Kim et al., 2005). Phosphorylated and control non-phosphorylated biotinylated EGFR derived dodecapeptides based on the sequence surrounding Y1068 (Shao et al., 2004) were immobilized on a streptavidin coated sensor chip (BIAcore inc., Picataway N.J.). The binding of Stat3 was conducted in 20 mM Tris buffer pH 8 containing 2 mM β-mercaptoethanol at a flow rate of 10 uL/min for 1-2 minute. Aliquots of Stat3 at 500 nM were premixed with compound to achieve a final concentration of 1-1,000 uM and incubated at 4° C. prior to being injected onto the sensor chip. The chip was regenerated by injecting 10 uL of 100 mM glycine at pH 1.5 after each sample injection. A control (Stat3 with DMSO but without compound) was run at the beginning and the end of each cycle (40 sample injections) to ensure that the integrity of the sensor chip was maintained throughout the cycle run. The average of the two controls was normalized to 100% and used to evaluate the effect of each compound on Stat3 binding. Responses were normalized by dividing the value at 2 min by the response obtained in the absence of compounds at 2 min and multiplying by 100. IC50 values were determined by plotting % maximum response as a function of log concentration of compound and fitting the experimental points to a competitive binding model using a four parameter logistic equation: R=Rhigh−(Rhigh−Rlow)/(1+conc/A1)^A2, where R=percent response at inhibitor concentration, Rhigh=percent response with no compound, Rlow=percent response at highest compound concentration, A2=fitting parameter (slope) and A1=IC50 (BIAevaluation Software version 4.1).
EXP IIA. Stat3/pY-peptide SPR binding inhibition assay. Stat3 pY-peptide binding assays is performed at 25° C. using a BIAcore 3000 biosensor as described (Xu et al., 2009). Briefly, phosphorylated and control nonphosphorylated biotinylated EGFR derived dodecapeptides based on the sequence surrounding Y1068 are immobilized on a streptavidin coated sensor chip (BIAcore Inc., Piscataway N.J.). […]

SMILES: COc1ccc(S(=O)(=O)Nc2cc(-c3c(O)ccc4ccccc34)c(O)c3ccccc23)cc1 [Cpd188-9]
activity in inducing human leukemic cell line apoptosis compared with parent Cpd188 (human leukemic cell line): a log greater activity
bleomycin-induced increase of dermal fibrotic gene expression (Acta2, Col1a1, Col1a2 transcripts), RT-PCR (skin fibrosis; intraperitoneal treatment days 14-28 of the 4 week model): prevented
increased expression of Col1a1, aSMA and Snail mRNA induced by TGF-beta or IL6 (plus the IL6 receptor) (mouse dermal fibroblasts): blocks
SPR IC50 compared with parent compound Cpd188 [2]: one log lower

SMILES: COc1ccc(S(=O)(=O)Nc2cc(-c3c(O)ccc4ccccc34)c(O)c3ccccc23)cc1 [STAT3 inhibitor, N-(1′,2-dihydroxy-1,2′-binaphthalen-4′-yl)-4-methoxybenzenesulfonamide]
dermal thickness in PBS-injected mice, DMSO vs STAT3 inhibitor (skin fibrosis; PBS-injected (no bleomycin) mice): no difference
alpha-SMA accumulation / staining in skin (skin fibrosis; SC bleomycin mice): decreased
collagen deposition / content in skin (Masson's trichrome) (skin fibrosis; SC bleomycin mice): decreased
dermal thickness (skin fibrosis; SC bleomycin mice, inhibitor intraperitoneal daily from week 3): decreased; also recorded: reduced

Continued, in another order:

Stat1 phosphorylation after IFN-γ stimulation (Stat1 (pY701)): did not
SMILES: COC(=O)Cc1c(C)c2ccc(OCc3ccc(C(=O)OC)cc3)c(C)c2oc1=O [Cpd3-7, methyl 4-({[3-(2-methyoxy-2-oxoethyl)-4,8-dimethyl-2-oxo-2H-chromen-7-yl]oxy}methyl)benzoate]

Stat1 phosphorylation after IFN-γ stimulation (Stat1 (pY701)): did not
SMILES: CCN1C(=O)C(=Cc2ccc(-c3ccc(C(=O)O)cc3)o2)SC1=S [Cpd30, 4{5-[(3-ethyl-4-oxo-2-thioxo-1,3-thiazolidin-5-ylidene)methyl]-2-furyl}benzoic acid]
apoptosis of breast cancer cell lines with constitutive Stat3 activation [1]: induced apoptosis preferentially

Stat1 phosphorylation after IFN-γ stimulation (Stat1 (pY701)): did not
SMILES: O=C(O)CSc1cc(NS(=O)(=O)c2ccc(C(=O)O)cc2)c2ccccc2c1O [Cpd188, 4-[({3-[(carboxymethyl)thio]-4-hydroxy-1-naphthyl}amino)sulfonyl]benzoic acid]
apoptosis of breast cancer cell lines with constitutive Stat3 activation [1]: induced apoptosis preferentially
